The values below come from EP0609437B1, “NOVEL SPHINGOGLYCOLIPID AND USE THEREOF” (KIRIN BEER KABUSHIKI KAISHA, priority 1991, dated 1993).

For one experiment, the system named is B16 mouse melanoma cells. Description: Anti-tumor activity against B16 mouse melanoma inoculated subcutaneously. The format is in vivo. The note with it: maximum tumor growth inhibition rate during the test period of 20 days, female BDF1 mice, 0.1 mg/kg intravenously on days 1, 5 and 9 after s.c. inoculation; for inhibition in vivo at 0.1 mg/kg: Mus musculus, iv, 480 h, read-out: TGIR (%). The method, then:
Anti-tumor activity against B16 mouse melanoma inoculated subcutaneously.
Experiment was carried out with the groups of 6 female BDF1 mice (6 weeks old) purchased from Japan SLC Inc., B16 mouse melanoma cells (1 × 10^6 cells/mouse) were inoculated subcutaneously in the rear region of mice, and the sample prepared in a concentration of 0.1 mg/kg was administered intravenously at a dose of 0.2 ml/20g/mouse after 1, 5 and 9 days from inoculation (the day of inoculation being set as 0 day). The volume of the tumor at the hypodermis of the rear region [(longer diameter × shorter diameter × height)/2] was measured on 8, 12, 16 and 20 days after inoculation, and the tumor growth inhibition rate (TGIR) of each sample was determined. TGIR was calculated from the following equation: TGIR (%) = (1 - T/C) × 100 [formula] wherein C represents a tumor volume of the control group and T represents a tumor volume of the group to which the sample was administered.
In this connection, respective test runs were divided by broken lines.

Experiment [1] relates to spleen cells of C57BL/6 mouse and pancreatic cells of BALB/c mouse. Description: Lymphocyte mixed culture reaction (mouse MLR), uptake of 3H-TdR. It counts as cell-based. The note with it: for activity at 1 µg/mL / activity at 0.1 µg/mL / activity at 0.01 µg/mL: Mus musculus, Lymphocyte, read-out: Uptake of ^3H-TdR (% of control); for activity at 1 µg/mL: sample concentration 10^0 µg/ml. The method, then:
Experiment was carried out with the spleen cells of C57BL/6 mouse which had been treated with mitomycin C (50 µg/ml, 30 min) as the stimulator and with the […] cells of BALB/c mouse as the responder. These […] cells were suspended to a concentration of 2 × 10^6 cells/ml with a culture medium of 10% FCS RPMI 1640, respectively. These cells (50 µl/well) and a sample (10 µl/well) were plated in a 96 well round-bottomed plate and cultured for 42 hours* under the condition of 37°C and 5% CO2. ^3H-thymidine (^3H-TdR) was added in a dose of 0.5 µCi/well. After 8 hours, the cells were harvested and subjected to the measurement of the uptake of ^3H-TdR by a liquid scintillation counter.
*The samples of the compounds 32, 33 and 34 were cultured for 4 days.

Where [2] appears, read: 50 h, cultured for 42 hours, then 8 hours with 3H-TdR.
Where [3] appears, read: 50 h, sample concentration 10^-1 µg/ml, cultured for 42 hours, then 8 hours with 3H-TdR.
The mark [4] stands for this setting: 50 h, sample concentration 10^-2 µg/ml, cultured for 42 hours, then 8 hours with 3H-TdR.

Where two headings read alike, the source gives them in different places.

Take `CCCCCCCCCCCCCCCCCCCCCC[C@@H](O)C(=O)N[C@@H](CO[C@H]1O[C@H](CO)[C@H](O)[C@H](O)[C@H]1O)[C@H](O)[C@H](O)CCCCCCC` [Compound 24, (2S,3S,4R)-1-(α-D-galactopyranosyloxy)-2-[(R)-2-hydroxytetracosanoylamino]-3,4-undecanediol]: the inhibition in vivo at 0.1 mg/kg in the experiment on B16 mouse melanoma cells is 52.5%. In addition, the activity at 1 µg/mL in experiment [1] (setting [2]) was found to be 416%. Further, in experiment [1] (setting [3]), the activity at 0.1 µg/mL came out at 167%. Also, the activity at 0.01 µg/mL in experiment [1] (setting [4]) amounted to 144%.

For `CCCCCCCCCCCCCCCCCCCC(=O)N[C@@H](CO[C@H]1O[C@H](CO)[C@H](O)[C@H](O)[C@H]1O)[C@H](O)CCCCCCCCCCCCCCC` [Compound 3, (2S,3R)-1-(α-D-galactopyranosyloxy)-2-icosanoylamino-3-octadecanol], the inhibition in vivo at 0.1 mg/kg in the experiment on B16 mouse melanoma cells is 56.9%. Further, the activity at 1 µg/mL in experiment [1] (setting [2]) amounted to 254%. The activity at 0.1 µg/mL in experiment [1] (setting [3]) was 117%. Moreover, in experiment [1] (setting [4]), the activity at 0.01 µg/mL was 110%.

Take `CCCCCCCCCCCCCCCCCCCCCCCC(=O)N[C@@H](CO[C@H]1O[C@H](CO)[C@H](O)[C@H](O)[C@H]1O)[C@H](O)[C@H](O)CCCCCCCCCCCCCC` [Compound 16, (2S,3S,4R)-1-(α-D-galactopyranosyloxy)-2-tetracosanoylamino-3,4-octadecanediol]: the inhibition in vivo at 0.1 mg/kg in the experiment with B16 mouse melanoma cells stood at 65%. In experiment [1] (setting [2]), the activity at 1 µg/mL is 321%. The activity at 0.1 µg/mL in experiment [1] (setting [3]) turned out to be 176%. Besides, in experiment [1] (setting [4]), the activity at 0.01 µg/mL is 160%.

For `CCCCCCCCCCCCCCCCCCCCCC[C@@H](O)C(=O)N[C@@H](CO[C@H]1O[C@H](CO)[C@H](O)[C@H](O)[C@H]1O)[C@H](O)[C@H](O)CCCCCCCCCCCCCC` [Compound 21, (2S,3S,4R)-1-(α-D-galactopyranosyloxy)-2-[(R)-2-hydroxytetracosanoylamino]-3,4-octadecanediol], the inhibition in vivo at 0.1 mg/kg with B16 mouse melanoma cells was found to be 57.9%. In addition, in experiment [1] (setting [2]), the activity at 1 µg/mL worked out at 304%. Moreover, in experiment [1] (setting [3]), the activity at 0.1 µg/mL came to 149%. The activity at 0.01 µg/mL in experiment [1] (setting [4]) came to 142%.

As for `CCCCCCCCCCCCCC(=O)N[C@H](CO[C@H]1O[C@H](CO)[C@H](O)[C@H](O)[C@H]1O)[C@H](O)CCCCCCCCCCCCC` [Compound 13, (2R,3R)-1-(α-D-galactopyranosyloxy)-2-tetradecanoylamino-3-hexadecanol], in the experiment on B16 mouse melanoma cells, the inhibition in vivo at 0.1 mg/kg amounted to 28.2%. Moreover, in experiment [1] (setting [2]), the activity at 1 µg/mL came to 139%. The activity at 0.1 µg/mL in experiment [1] (setting [3]) was determined as 106%. Besides, in experiment [1] (setting [4]), the activity at 0.01 µg/mL turned out to be 107%.

On to `CCCCCCCCCCCCCCC[C@@H](O)[C@H](CO[C@H]1O[C@H](CO)[C@H](O)[C@H](O)[C@H]1O)NC(=O)CCCCCCCCC` [Compound 6, (2S,3R)-2-decanoylamino-1-(α-D-galactopyranosyloxy)-3-octadecanol], for which the inhibition in vivo at 0.1 mg/kg in the experiment on B16 mouse melanoma cells amounted to 73.7%. In addition, in experiment [1] (setting [2]), the activity at 1 µg/mL is 498%. Moreover, the activity at 0.1 µg/mL in experiment [1] (setting [3]) stood at 190%. In experiment [1] (setting [4]), the activity at 0.01 µg/mL was 187%.

Consider “(2S,3S,4R)-1-(α-D-galactopyranosyloxy)-2-[(R)-2-hydroxytetracosanoylamino]-3,4-hexadecanediol [Compound 32]”, for which the “TGIR (%)” value in the experiment with B16 mouse melanoma cells was found to be 73.2%. In addition, the “Uptake of ^3H-TdR (% of control)” value in experiment [1] (sample concentration 10^-1 µg/ml, cultured for 4 days) is given as 406 % of control; in experiment [1] (sample concentration 10^-2 µg/ml, cultured for 4 days), 426 % of control.

Regarding `CCCCCCCCCCCCC/C=C/[C@@H](O)[C@H](CO[C@H]1O[C@H](CO)[C@H](O)[C@H](O)[C@H]1O)NC(=O)CCCCCCCCCCCCC` [Compound 35, (2S,3R,4E)-1-(α-D-galactopyranosyloxy)-2-tetradecanoylamino-4-octadecen-3-ol], in the experiment on B16 mouse melanoma cells, the inhibition in vivo at 0.1 mg/kg was 63%. Further, the activity at 1 µg/mL in experiment [1] (setting [2]) was found to be 562%. Besides, in experiment [1] (setting [3]), the activity at 0.1 µg/mL was found to be 261%. Further, in experiment [1] (setting [4]), the activity at 0.01 µg/mL was determined as 247%.

In the case of `CCCCCCCCCCCCCCCCCCCCCCCC(=O)N[C@@H](CO[C@H]1O[C@H](CO)[C@H](O)[C@H](O)[C@H]1O)[C@H](O)[C@H](O)CCCCCCCCCCC` [Compound 18, (2S,3S,4R)-1-(α-D-galactopyranosyloxy)-2-tetracosanoylamino-3,4-pentadecanediol], the inhibition in vivo at 0.1 mg/kg in the experiment on B16 mouse melanoma cells worked out at 66.3%. Further, the activity at 1 µg/mL in experiment [1] (setting [2]) was found to be 482%. Also, the activity at 0.1 µg/mL in experiment [1] (setting [3]) amounted to 176%. For the same compound, the activity at 0.01 µg/mL in experiment [1] (setting [4]) amounted to 138%.

Regarding `CCCCCCCCCCCCCCCCCC(=O)N[C@@H](CO[C@H]1O[C@H](CO)[C@H](O)[C@H](O)[C@H]1O)[C@H](O)CCCCCCCCCCCCCCC` [Compound 4, (2S,3R)-1-(α-D-galactopyranosyloxy)-2-octadecanoylamino-3-octadecanol], in the experiment on B16 mouse melanoma cells, the inhibition in vivo at 0.1 mg/kg came out at 78.1%. Also, the activity at 1 µg/mL in experiment [1] (setting [2]) stood at 269%. For the same compound, the activity at 0.1 µg/mL in experiment [1] (setting [3]) stood at 158%. Besides, in experiment [1] (setting [4]), the activity at 0.01 µg/mL stood at 134%.

On to `CCCCCCCCCCCCCCCCCCCCCC(=O)N[C@@H](CO[C@H]1O[C@H](CO)[C@H](O)[C@H](O)[C@H]1O)[C@H](O)CCCCCCCCCCCCCCC` [Compound 2, (2S,3R)-2-docosanoylamino-1-(α-D-galactopyranosyloxy)-3-octadecanol], for which the inhibition in vivo at 0.1 mg/kg with B16 mouse melanoma cells stood at 53.1%. In experiment [1] (setting [2]), the activity at 1 µg/mL came to 329%. In experiment [1] (setting [3]), the activity at 0.1 µg/mL worked out at 115%. Besides, the activity at 0.01 µg/mL in experiment [1] (setting [4]) is 103%.

For the compound `CCCCCCCCCCCCCC(=O)N[C@H](CO[C@H]1O[C@H](CO)[C@H](O)[C@H](O)[C@H]1O)[C@@H](O)CCCCCCCCCCCCC` [Compound 11, (2R,3S)-1-(α-D-galactopyranosyloxy)-2-tetradecanoylamino-3-hexadecanol], the inhibition in vivo at 0.1 mg/kg in the experiment on B16 mouse melanoma cells is 55.9%. Further, the activity at 1 µg/mL in experiment [1] (setting [2]) came to 128%. Further, the activity at 0.1 µg/mL in experiment [1] (setting [3]) was 105%. Moreover, the activity at 0.01 µg/mL in experiment [1] (setting [4]) was 95%.

Consider `CCCCCCCCCCCCCCCCCCCCCC[C@H](O)C(=O)N[C@@H](CO[C@H]1O[C@H](CO)[C@H](O)[C@H](O)[C@H]1O)[C@H](O)[C@H](O)CCCCCCCCCCCC(C)C` [Compound 30, (2S,3S,4R)-1-(α-D-galactopyranosyloxy)-2-[(S)-2-hydroxytetracosanoylamino]-16-methyl-3,4-heptadecanediol], for which the inhibition in vivo at 0.1 mg/kg in the experiment on B16 mouse melanoma cells is 57.7%. Further, the activity at 1 µg/mL in experiment [1] (setting [2]) came out at 385%. Further, in experiment [1] (setting [3]), the activity at 0.1 µg/mL was 156%. In addition, the activity at 0.01 µg/mL in experiment [1] (setting [4]) was found to be 134%.

`CCCCCCCCCCCCCCCCCCCCCCCC(=O)N[C@@H](CO[C@H]1O[C@H](CO)[C@H](O)[C@H](O)[C@H]1O)[C@H](O)CCCCCCCCCCCCCCC` [Compound 1, (2S,3R)-1-(α-D-galactopyranosyloxy)-2-tetracosanoylamino-3-octadecanol]: the inhibition in vivo at 0.1 mg/kg with B16 mouse melanoma cells is 91.4%. The activity at 1 µg/mL in experiment [1] (setting [2]) came out at 359%. Also, the activity at 0.1 µg/mL in experiment [1] (setting [3]) turned out to be 151%. In addition, the activity at 0.01 µg/mL in experiment [1] (setting [4]) was 136%.

As for `CCCCCCCCCCCCCCCCCCCCCCC[C@@H](O)C(=O)N[C@@H](CO[C@H]1O[C@H](CO)[C@H](O)[C@H](O)[C@H]1O)[C@H](O)[C@H](O)CCCCCCCCCCCC(C)CC` (stereo partly drawn) [Compound 34, (2S,3S,4R)-1-(α-D-galactopyranosyloxy)-2-[(R)-2-hydroxypentacosanoylamino]-16-methyl-3,4-octadecanediol], the inhibition in vivo at 0.1 mg/kg in the experiment with B16 mouse melanoma cells stood at 88.9%. In addition, the activity at 0.1 µg/mL in experiment [1] (96 h, sample concentration 10^-1 µg/ml, cultured for 4 days) was determined as 360%. For the same compound, the activity at 0.01 µg/mL in experiment [1] (96 h, sample concentration 10^-2 µg/ml, cultured for 4 days) turned out to be 406%.

On to `CCCCCCCCCCCCCCCCCCCCCC[C@@H](O)C(=O)N[C@@H](CO[C@H]1O[C@H](CO)[C@H](O)[C@H](O)[C@H]1O)[C@H](O)CCCCCCCCCCCCCCC` [Compound 14, (2S,3R)-1-(α-D-galactopyranosyloxy)-2-[(R)-2-hydroxytetracosanoylamino]-3-octadecanol], for which the inhibition in vivo at 0.1 mg/kg in the experiment with B16 mouse melanoma cells is 84%. Further, the activity at 1 µg/mL in experiment [1] (setting [2]) worked out at 289%. Also, the activity at 0.1 µg/mL in experiment [1] (setting [3]) was 197%. Besides, the activity at 0.01 µg/mL in experiment [1] (setting [4]) came to 139%.

On to `CCCCCCCCCCCCCC(=O)N[C@@H](CO[C@H]1O[C@H](CO)[C@H](O)[C@H](O)[C@H]1O)[C@@H](O)CCCCCCCCCCCCC` [Compound 12, (2S,3S)-1-(α-D-galactopyranosyloxy)-2-tetradecanoylamino-3-hexadecanol], for which the inhibition in vivo at 0.1 mg/kg in the experiment on B16 mouse melanoma cells was found to be 41.8%. The activity at 1 µg/mL in experiment [1] (setting [2]) worked out at 123%. In experiment [1] (setting [3]), the activity at 0.1 µg/mL worked out at 99%. For the same compound, the activity at 0.01 µg/mL in experiment [1] (setting [4]) stood at 104%.
